Data published in US11154591B2, “Methods of treating alcohol abuse disorder” (THE TRUSTEES OF COLUMBIA UNIVERSITY IN THE CITY OF NEW YORK, priority 2016, dated 2021).

What was measured:
C57BL/6J mice = assay: Free-choice 10% ethanol/water drinking, Example 1; assay type: in vivo
Text: Animals (C57BL/6J mice) were offered two options for drinking water, one bottle with pure water, and the other bottle containing a 10% ethanol/water mix, both of which were available “free choice” from Day 1 of the experiment. […] In this experiment, as the mice became accustomed to the 10% ethanol mix offered, they began to drink more and more of the ethanol mix, so that when their liquid consumption was plotted as a ratio of 10% ethanol/water, the ratio quickly became greater than 1 (more 10% ethanol than pure water). The mice were allowed to establish a baseline consumption pattern, and after 30 Days, 5 cages consistently consumed more of the ethanol mix than pure water.
Beginning on Day 33, three cages were treated with Spexin at 25 micrograms/kg/day in 1×PBS; via IP injection (cages 1, 4, and 10). Mice were administered the 14 amino acid Spexin peptide with carboxy terminal amidation: Asn-Trp-Thr-Pro-Gln-Ala-Met-Leu-Tyr-Leu-Lys-Gly-Ala-Gln-NH2 (SEQ ID NO: 4; available from Phoenix Pharmaceuticals, Catalog No. 023-81). The other two cages (2 and 7) were injected with an equal volume of vehicle according to the same schedule. Animals were injected for 5 days (Days 33 through 37), then given two days off (Days 38 and 39), then injected again with Spexin for two more days (days 40 and 41). […]

male C57BL/6J mice = assay: Free-choice 10% ethanol vs water intake, Example 2; assay type: in vivo
Description: To test this hypothesis, 5 groups of 5 male C57BL/6J mice (25 total) were housed for 40 days in plastic cages with 2 water bottles each: one containing water and the other 10% ethanol in water (10% ethanol). Fluids were available “free choice”, and intake from each bottle was recorded daily.
Over the 1st week, 10% ethanol and water were consumed at a mean ratio of 0.80±0.32:1.0. Intake of 10% ethanol then increased, plateauing at a 10% ethanol:water ratio of 2.0±0.17:1.0 by Days 22-30. This was assigned a value of 100% as baseline for the subsequent studies. Starting on Day 31, 15 mice were injected with Spexin in 1×PBS 25 μg/kg in PBS i.p. daily for 3 days. Mice were administered the 14 amino acid Spexin peptide with carboxy terminal amidation: Asn-Trp-Thr-Pro-Gln-Ala-Met-Leu-Tyr-Leu-Lys-Gly-Ala-Gln-NH2 (SEQ ID NO: 4; available from Phoenix Pharmaceuticals, Catalog No. 023-81). The other 10 mice were injected with 1×PBS (vehicle) alone.

rat stomach explant = details: cited from earlier work
obese (DIO) mice = details: injected into obese (DIO) mice; cited from earlier work

Asn-Trp-Thr-Pro-Gln-Ala-Met-Leu-Tyr-Leu-Lys-Gly-Ala-Gln-NH2 [Spexin]
ratio of 10% ethanol/water consumption (C57BL/6J mice; 25 micrograms/kg/day IP in 1xPBS, Days 33-37 and 40-41, cages 1, 4 and 10): dropped in all three cages
ratio of 10% ethanol/water consumption (C57BL/6J mice; 25 micrograms/kg/day IP, cages 4 and 10): below 1
10% ethanol:water ratio, % of baseline (male C57BL/6J mice; 25 μg/kg i.p. daily, 1st day of Spexin administration, baseline ratio 2.0:1.0 = 100%): 80.7%
10% ethanol:water ratio, % of baseline (male C57BL/6J mice; 25 μg/kg i.p. daily, 2nd day of Spexin administration): 42.4%
10% ethanol:water ratio, % of baseline (male C57BL/6J mice; 25 μg/kg i.p. daily, 3rd day of Spexin administration): 42.4%
10% ethanol:water ratio, % of baseline (male C57BL/6J mice; 1st day post-Spexin): 100%
10% ethanol:water ratio, % of baseline (male C57BL/6J mice; 2nd day post-Spexin): 136%
ethanol intake (male C57BL/6J mice; daily spexin injections, free choice): rapidly & significantly reduce ethanol intake
contractile effects (rat stomach explant): demonstrates contractile effects
weight loss (obese (DIO) mice): produces weight loss
